Experimental data taken from ChEMBL document CHEMBL4138146, “A Schmidt rearrangement-mediated synthesis of novel tetrahydro-benzo[1,4]diazepin-5-ones as potential anticancer and antiprotozoal agents” (Eur J Med Chem, 2017).

Key:
Type in all cases: functional
HOP-62 = assay: Growth inhibition of human HOP62 cells assessed as cell growth at 10^-6 M incubated for 48 hrs by sulforhodamine B assay relative to control; conditions: HOP-62, 48 h, read-out: Activity
CAKI-1 = assay: Growth inhibition of human Caki1 cells assessed as cell growth at 10^-6 M incubated for 48 hrs by sulforhodamine B assay relative to control; conditions: CAKI-1, 48 h, read-out: Activity
PC-3 = assay: Growth inhibition of human PC3 cells assessed as cell growth at 10^-5 M incubated for 48 hrs by sulforhodamine B assay relative to control; conditions: PC-3, 48 h, read-out: Activity
TK-10 [1] = assay: Growth inhibition of human TK10 cells assessed as cell growth at 10^-5 M incubated for 48 hrs by sulforhodamine B assay relative to control; conditions: TK-10, 48 h, read-out: Activity
T47D [2] = assay: Growth inhibition of human T47D cells assessed as cell growth at 10^-6 M incubated for 48 hrs by sulforhodamine B assay relative to control; conditions: read-out: Activity
SK-OV-3 = assay: Growth inhibition of human SKOV3 cells assessed as cell growth at 10^-6 M incubated for 48 hrs by sulforhodamine B assay relative to control; conditions: SK-OV-3, 48 h, read-out: Activity
HCT-15 [3] = assay: Growth inhibition of human HCT15 cells assessed as cell growth at 10^-4 M incubated for 48 hrs by sulforhodamine B assay relative to control; conditions: HCT-15, 48 h, read-out: Activity
SN12C = assay: Growth inhibition of human SN12C cells assessed as cell growth at 10^-4 M incubated for 48 hrs by sulforhodamine B assay relative to control; conditions: read-out: Activity
M14 = assay: Growth inhibition of human M14 cells assessed as cell growth at 10^-7 M incubated for 48 hrs by sulforhodamine B assay relative to control; conditions: M14, 48 h, read-out: Activity
DU-145 = assay: Growth inhibition of human DU145 cells assessed as cell growth at 10^-8 M incubated for 48 hrs by sulforhodamine B assay relative to control; conditions: DU-145, 48 h, read-out: Activity
BT-549 = assay: Growth inhibition of human BT549 cells assessed as cell growth at 10^-8 M incubated for 48 hrs by sulforhodamine B assay relative to control; conditions: BT-549, 48 h, read-out: Activity
LOX IMVI = assay: Growth inhibition of human LOXIMVI cells assessed as cell growth at 10^-8 M incubated for 48 hrs by sulforhodamine B assay relative to control; conditions: read-out: Activity
NCI-H23 = assay: Growth inhibition of human NCI-H23 cells assessed as cell growth at 10^-8 M incubated for 48 hrs by sulforhodamine B assay relative to control; conditions: NCI-H23, 48 h, read-out: Activity
SK-MEL-28 = assay: Growth inhibition of human SK-MEL-28 cells assessed as cell growth at 10^-5 M incubated for 48 hrs by sulforhodamine B assay relative to control; conditions: SK-MEL-28, 48 h, read-out: Activity
HCT-15 [4] = assay: Growth inhibition of human HCT15 cells assessed as cell growth at 10^-5 M incubated for 48 hrs by sulforhodamine B assay relative to control; conditions: HCT-15, 48 h, read-out: Activity
T47D [5] = assay: Growth inhibition of human T47D cells assessed as cell growth at 10^-5 M incubated for 48 hrs by sulforhodamine B assay relative to control; conditions: read-out: Activity
HT-29 = assay: Growth inhibition of human HT-29 cells assessed as cell growth at 10^-7 M incubated for 48 hrs by sulforhodamine B assay relative to control; conditions: HT-29, 48 h, read-out: Activity
SF-268 = assay: Growth inhibition of human SF268 cells assessed as cell growth at 10^-7 M incubated for 48 hrs by sulforhodamine B assay relative to control; conditions: SF-268, 48 h, read-out: Activity
UO-31 [6] = assay: Growth inhibition of human UO31 cells assessed as cell growth at 10^-7 M incubated for 48 hrs by sulforhodamine B assay relative to control; conditions: UO-31, 48 h, read-out: Activity
SF-539 [7] = assay: Growth inhibition of human SF539 cells assessed as cell growth at 10^-6 M incubated for 48 hrs by sulforhodamine B assay relative to control; conditions: SF-539, 48 h, read-out: Activity
RXF 393 = assay: Growth inhibition of human RXF393 cells assessed as cell growth at 10^-6 M incubated for 48 hrs by sulforhodamine B assay relative to control; conditions: RXF 393, 48 h, read-out: Activity
UO-31 [8] = assay: Growth inhibition of human UO31 cells assessed as cell growth at 10^-4 M incubated for 48 hrs by sulforhodamine B assay relative to control; conditions: UO-31, 48 h, read-out: Activity
MDA-MB-231 = assay: Growth inhibition of human MDA-MB-231 cells assessed as cell growth at 10^-5 M incubated for 48 hrs by sulforhodamine B assay relative to control; conditions: MDA-MB-231, 48 h, read-out: Activity
TK-10 [9] = assay: Growth inhibition of human TK10 cells assessed as cell growth at 10^-4 M incubated for 48 hrs by sulforhodamine B assay relative to control; conditions: TK-10, 48 h, read-out: Activity
SW-620 = assay: Growth inhibition of human SW620 cells assessed as cell growth at 10^-5 M incubated for 48 hrs by sulforhodamine B assay relative to control; conditions: SW-620, 48 h, read-out: Activity
NCI-H322M = assay: Growth inhibition of human NCI-H322M cells assessed as cell growth at 10^-6 M incubated for 48 hrs by sulforhodamine B assay relative to control; conditions: read-out: Activity
SF-539 [10] = assay: Growth inhibition of human SF539 cells assessed as cell growth at 10^-7 M incubated for 48 hrs by sulforhodamine B assay relative to control; conditions: SF-539, 48 h, read-out: Activity
A498 = assay: Growth inhibition of human A498 cells assessed as cell growth at 10^-4 M incubated for 48 hrs by sulforhodamine B assay relative to control; conditions: A498, 48 h, read-out: Activity
HCT-116 = assay: Growth inhibition of human HCT116 cells assessed as cell growth at 10^-7 M incubated for 48 hrs by sulforhodamine B assay relative to control; conditions: HCT-116, 48 h, read-out: Activity
MOLT-4 [11] = assay: Growth inhibition of human MOLT4 cells assessed as cell growth at 10^-7 M incubated for 48 hrs by sulforhodamine B assay relative to control; conditions: MOLT-4, 48 h, read-out: Activity
HL-60(TB) = assay: Growth inhibition of human HL-60(TB) cells assessed as cell growth at 10^-4 M incubated for 48 hrs by sulforhodamine B assay relative to control; conditions: HL-60, 48 h, read-out: Activity
MOLT-4 [12] = assay: Growth inhibition of human MOLT4 cells assessed as cell growth at 10^-4 M incubated for 48 hrs by sulforhodamine B assay relative to control; conditions: MOLT-4, 48 h, read-out: Activity
UO-31 [13] = assay: Growth inhibition of human UO31 cells assessed as cell growth at 10^-6 M incubated for 48 hrs by sulforhodamine B assay relative to control; conditions: UO-31, 48 h, read-out: Activity
K562 = assay: Growth inhibition of human K562 cells assessed as cell growth at 10^-7 M incubated for 48 hrs by sulforhodamine B assay relative to control; conditions: K562, 48 h, read-out: Activity

`CCCCOc1nc2ccccc2cc1C1CNC(=O)c2ccccc2N1` (centres undefined) was tested, and the growth at 1 µM (HOP-62) was 78%, the growth at 1 µM (CAKI-1) was 70% and the growth at 10 µM (PC-3) was 9%. For the same compound, the growth at 10 µM (TK-10 [1]) was 31%, the growth at 1 µM (T47D [2]) was 86% and the growth at 1 µM (SK-OV-3) was 80%. The growth at 100 µM (HCT-15 [3]) was -74%, the growth at 100 µM (SN12C) was -53% and the growth at 0.1 µM (M14) was 91%. The growth at 0.01 µM (DU-145) was 101%, the growth at 0.01 µM (BT-549) was 105% and the growth at 0.01 µM (LOX IMVI) was 95%. For the same compound, the growth at 0.01 µM (NCI-H23) was 95%, the growth at 10 µM (SK-MEL-28) was 44% and the growth at 10 µM (HCT-15 [4]) was 3%. It also gave a growth at 10 µM (T47D [5]) of 36%, a growth at 0.1 µM (HT-29) of 98% and a growth at 0.1 µM (SF-268) of 92%. It also gave a growth at 0.1 µM (UO-31 [6]) of 86%, a growth at 1 µM (SF-539 [7]) of 85% and a growth at 1 µM (RXF 393) of 80%. For the same compound, the growth at 100 µM (UO-31 [8]) was -67%, the growth at 10 µM (MDA-MB-231) was 25% and the growth at 100 µM (TK-10 [9]) was -62%. For the same compound, the growth at 10 µM (SW-620) was 18%, the growth at 1 µM (NCI-H322M) was 86% and the growth at 0.1 µM (SF-539 [10]) was 93%. For the same compound, the growth at 100 µM (A498) was -38%, the growth at 0.1 µM (HCT-116) was 101% and the growth at 0.1 µM (MOLT-4 [11]) was 94%. It also gave a growth at 100 µM (HL-60(TB)) of -55%, a growth at 100 µM (MOLT-4 [12]) of -37% and a growth at 1 µM (UO-31 [13]) of 61%. The growth at 0.1 µM (K562) was 95%.
